Legend:
Echinochloa crus-galli [1] = assay: Post-emergence herbicidal effect; format: in vivo; conditions: 320 g/ha, visual scoring after about 3 weeks
Procedure: (§1) Seeds of monocotyledonous and dicotyledonous weed and crop plants are laid out in sandy loam in wood-fiber pots, covered with soil and cultivated in a greenhouse under good growth conditions. 2 to 3 weeks after sowing, the test plants are treated at the one-leaf stage. The compounds of the invention, formulated in the form of wettable powders (WP) or as emulsion concentrates (EC), are then sprayed onto the green parts of the plants as aqueous suspension or emulsion at a water application rate equating to 600 to 800 L/ha with addition of 0.2% wetting agent. After the trial plants have been left to stand in a greenhouse under optimal growth conditions for about 3 weeks, the efficacy of the formulations is scored visually in comparison to untreated controls (herbicidal action in percent (%): 100% efficacy=the plants have died, 0% efficacy=like control plants).

Viola tricolor = assay: Pre-emergence herbicidal effect; format: in vivo; conditions: 3 weeks
Source text: (§2) Seeds of monocotyledonous and dicotyledonous weed plants and crop plants are laid out in wood-fiber pots in sandy loam and covered with soil. The compounds of the invention, formulated in the form of wettable powders (WP) or as emulsion concentrates (EC), are then applied to the surface of the covering soil as aqueous suspension or emulsion at a water application rate equating to 600 to 800 L/ha with addition of 0.2% wetting agent.
(§3) After the treatment, the pots are placed in a greenhouse and kept under good growth conditions for the trial plants. The damage to the trial plants is scored visually after a trial duration of 3 weeks by comparison with untreated controls (herbicidal activity in percent (%): 100% efficacy=the plants have died, 0% efficacy=like control plants).

Setaria viridis = assay: Pre-emergence herbicidal effect; format: in vivo; conditions: 3 weeks
Source text: as §2, §3

Alopecurus myosuroides = assay: Pre-emergence herbicidal effect; format: in vivo; conditions: 320 g/ha, 3 weeks
Source text: as §2, §3

Matricaria inodora = assay: Pre-emergence herbicidal effect; format: in vivo; conditions: 3 weeks
Source text: as §2, §3

Amaranthus retroflexus = assay: Pre-emergence herbicidal effect; format: in vivo; conditions: 3 weeks
Source text: as §2, §3

Veronica persica = assay: Pre-emergence herbicidal effect; format: in vivo; conditions: 3 weeks
Source text: as §2, §3

Lolium multiflorum = assay: Pre-emergence herbicidal effect; format: in vivo; conditions: 320 g/ha, 3 weeks
Source text: as §2, §3

Polygonum convolvulus = assay: Pre-emergence herbicidal effect; format: in vivo; conditions: 3 weeks
Source text: as §2, §3

Echinochloa crus-galli [2] = assay: Pre-emergence herbicidal effect; format: in vivo; conditions: 3 weeks
Source text: as §2, §3

Stellaria media = assay: Pre-emergence herbicidal effect; format: in vivo; conditions: 3 weeks
Source text: as §2, §3

Zea mays [3] = assay: Post-emergence herbicidal effect and crop plant compatibility; format: in vivo; conditions: visual scoring after about 3 weeks
Procedure: as §1

[4] = tested on: Triticum aestivum (spring); assay: as above; format: in vivo; conditions: visual scoring after about 3 weeks
Procedure: as §1

Oryza sativa [5] = assay: as above; format: in vivo; conditions: visual scoring after about 3 weeks
Procedure: as §1

Zea mays [6] = assay: Pre-emergence herbicidal effect and crop plant compatibility; format: in vivo; conditions: 3 weeks
Source text: as §2, §3

[7] = tested on: Triticum aestivum (spring); assay: as above; format: in vivo; conditions: 3 weeks
Source text: as §2, §3

Oryza sativa [8] = assay: as above; format: in vivo; conditions: 3 weeks
Source text: as §2, §3

Ipomoea purpurea = assay: Post-emergence herbicidal effect; format: in vivo; conditions: 320 g/ha (dose by row order of upper half), scoring after about 3 weeks
Procedure: as §1

[9] = logp (HCOOH), physicochemical characterization
Avena fatua = assay: Pre-emergence herbicidal effect; format: in vivo; conditions: 1280 g/ha, 3 weeks
Source text: as §2, §3

CC(C)C1CC(=O)c2cnc(N[C@@H]3CCCc4ccccc43)nc2C1 (some centres unmarked) [2.102]
post-emergence efficacy ECHCG (Echinochloa crus-galli [1]): 100% | VIOTR herbicidal activity in percent (Viola tricolor; 80 g/ha): 100% | VIOTR herbicidal activity in percent (Viola tricolor; 320 g/ha): 100% | SETVI herbicidal activity in percent (Setaria viridis; 80 g/ha): 100% | SETVI herbicidal activity in percent (Setaria viridis; 320 g/ha): 100% | ALOMY herbicidal activity in percent (Alopecurus myosuroides): 100% | MATIN herbicidal activity in percent (Matricaria inodora; 80 g/ha): 90% | MATIN herbicidal activity in percent (Matricaria inodora; 320 g/ha): 100% | AMARE herbicidal activity in percent (Amaranthus retroflexus; 80 g/ha): 80% | AMARE herbicidal activity in percent (Amaranthus retroflexus; 320 g/ha): 100% | VERPE herbicidal activity in percent (Veronica persica; 80 g/ha): 100% | VERPE herbicidal activity in percent (Veronica persica; 320 g/ha): 100% | LOLMU herbicidal activity in percent (Lolium multiflorum): 100% | POLCO herbicidal activity in percent (Polygonum convolvulus; 320 g/ha): 90% | ECHCG herbicidal activity in percent (Echinochloa crus-galli [2]; 320 g/ha): 100% | STEME herbicidal activity in percent (Stellaria media; 80 g/ha): 100% | STEME herbicidal activity in percent (Stellaria media; 320 g/ha): 100% | post-emergence efficacy ZEAMX (Zea mays [3]; 80 g/ha): 0% | post-emergence efficacy ZEAMX (Zea mays [3]; 320 g/ha): 0% | post-emergence efficacy TRZAS ([4]; 80 g/ha): 20% | post-emergence efficacy ORYSA (Oryza sativa [5]; 80 g/ha): 0% | post-emergence efficacy ORYSA (Oryza sativa [5]; 320 g/ha): 0% | ZEAMX herbicidal activity in percent (Zea mays [6]; 80 g/ha): 0% | ZEAMX herbicidal activity in percent (Zea mays [6]; 320 g/ha): 0% | TRZAS herbicidal activity in percent ([7]; 80 g/ha): 0% | TRZAS herbicidal activity in percent ([7]; 320 g/ha): 0% | ORYSA herbicidal activity in percent (Oryza sativa [8]; 80 g/ha): 0% | ORYSA herbicidal activity in percent (Oryza sativa [8]; 320 g/ha): 0%

CC1(C)CC(=O)c2cnc(NC3CCOc4ccccc43)nc2C1 (racemic) [2.94]
post-emergence efficacy PHBPU (Ipomoea purpurea): 80% | VIOTR herbicidal activity in percent (Viola tricolor; 320 g/ha): 100% | SETVI herbicidal activity in percent (Setaria viridis; 320 g/ha): 90% | ALOMY herbicidal activity in percent (Alopecurus myosuroides): 80% | MATIN herbicidal activity in percent (Matricaria inodora; 320 g/ha): 100% | AMARE herbicidal activity in percent (Amaranthus retroflexus; 320 g/ha): 100% | VERPE herbicidal activity in percent (Veronica persica; 320 g/ha): 100% | LOLMU herbicidal activity in percent (Lolium multiflorum): 90% | POLCO herbicidal activity in percent (Polygonum convolvulus; 320 g/ha): 100% | ECHCG herbicidal activity in percent (Echinochloa crus-galli [2]; 320 g/ha): 100% | STEME herbicidal activity in percent (Stellaria media; 320 g/ha): 100% | post-emergence efficacy ZEAMX (Zea mays [3]; 80 g/ha): 0% | post-emergence efficacy ZEAMX (Zea mays [3]; 320 g/ha): 0% | post-emergence efficacy TRZAS ([4]; 80 g/ha): 10% | post-emergence efficacy TRZAS ([4]; 320 g/ha): 20% | post-emergence efficacy ORYSA (Oryza sativa [5]; 80 g/ha): 0% | post-emergence efficacy ORYSA (Oryza sativa [5]; 320 g/ha): 0% | logp (HCOOH) [9]: oily; logp (HCOOH): 2.97; 1H-NMR (CDCl3, 400 MHZ, δ in ppm): 1.10 (s, 6H, | ZEAMX herbicidal activity in percent (Zea mays [6]; 320 g/ha): 0% | TRZAS herbicidal activity in percent ([7]; 320 g/ha): 0% | ORYSA herbicidal activity in percent (Oryza sativa [8]; 320 g/ha): 0%

CC(=O)c1cnc(N[C@@H]2CCc3c(F)cccc32)nc1 [1.90]
VIOTR herbicidal activity in percent (Viola tricolor; 1280 g/ha): 100% | MATIN herbicidal activity in percent (Matricaria inodora; 320 g/ha): 100% | MATIN herbicidal activity in percent (Matricaria inodora; 1280 g/ha): 100% | AMARE herbicidal activity in percent (Amaranthus retroflexus; 320 g/ha): 90% | AMARE herbicidal activity in percent (Amaranthus retroflexus; 1280 g/ha): 100% | VERPE herbicidal activity in percent (Veronica persica; 320 g/ha): 100% | VERPE herbicidal activity in percent (Veronica persica; 1280 g/ha): 100% | POLCO herbicidal activity in percent (Polygonum convolvulus; 1280 g/ha): 90% | ECHCG herbicidal activity in percent (Echinochloa crus-galli [2]; 1280 g/ha): 80% | STEME herbicidal activity in percent (Stellaria media; 320 g/ha): 80% | STEME herbicidal activity in percent (Stellaria media; 1280 g/ha): 100% | AVEFA herbicidal activity in percent (Avena fatua): 100% | logp (HCOOH) [9]: solid; m.p.: 111.5° C.; logp (HCOOH): 2.43; 1H-NMR (CDCl3, 400 MHZ, δ in ppm: | ZEAMX herbicidal activity in percent (Zea mays [6]; 320 g/ha): 20% | ZEAMX herbicidal activity in percent (Zea mays [6]; 1280 g/ha): 20% | TRZAS herbicidal activity in percent ([7]; 320 g/ha): 0% | TRZAS herbicidal activity in percent ([7]; 1280 g/ha): 0% | ORYSA herbicidal activity in percent (Oryza sativa [8]; 320 g/ha): 20% | ORYSA herbicidal activity in percent (Oryza sativa [8]; 1280 g/ha): 20%
